Source: patent US12485121B2, “Antiviral agents for the treatment and prevention of HIV infection” (Pharmasyntez, Joint Stock Company, priority 2020, dated 2025)

system: HIV-1 subtype A strain 12RU 69831; experiment: Inhibition of HIV-1 reproduction / protection of infected MT-4 cells (living cell concentration, p24 production); assay type: cell-based; settings: Human immunodeficiency virus 1, MT4, MT-4 cells infected with HIV-1 at a constant virus dose of 300 CCID50; read-out: Activity against HIV-1 12RU 69831 strain (subtype A)
Procedure: Evaluation of HIV reproduction inhibition/protection of human cells by anti-HIV products of the present invention was conducted by measuring change in living cells concentration in experimental wells with MT-4 cells infected with HIV-1, as well as by the production of viral protein p24 with adding different concentrations of compounds according to the present invention. Antiviral activity of products against HIV-1 subtype A strain 12RU 69831 was determined, when the cell culture was infected with a constant dose of virus, corresponding to 300 CCID50.

| IC50 [µM] | Compound |
| --- | --- |
| 0.145 | Cc1cc(C#N)cc(C)c1Oc1nc(Nc2ccc(C#N)cc2)nc2c1CN(S(C)(=O)=O)CC2 [BB0273964, 4-((2-((4-Cyanophenyl)amino)-6-(methylsulfonyl)-5,6,7,8-tetrahydropyrido[4,3-d]pyrimidine-4-yl)oxy)-3,5-dimethylbenzonitrile] |
| 230 | Cc1cc(C#N)cc(C)c1Oc1nc(Nc2ccc(C#N)cc2)nc2c1CCN(C(=O)C1CCCN1C(=O)OC(C)(C)C)CC2 (stereo not shown) [BB0274063, Tert-butyl 2-(4-(4-cyano-2,6-dimethylphenoxy)-2-((cyanophenyl)amino)-6,7,8,9-tetrahydro-5H-pyrimido[4,5-d]azepine-7-carbonyl)pyrrolidine-1-carboxylate] |
| 83.3 | Cc1cc(C#N)cc(C)c1Oc1nc(Nc2ccc(C#N)cc2)nc2c1CCN(Cc1cccn1C)CC2 [BB0274074] |
| 0.0125 | Cc1cc(C#N)cc(C)c1Oc1nc(Nc2ccc(C#N)cc2)nc2c1CCN(C(=O)Cn1ccnc1)CC2 [BB0274227, 4-((7-(2-(1H-Imidazole-1-yl)acetyl)-2-((4-cyanophenyl)amino)-6,7,8,9-tetrahydro-5H-pyrimido[4,5-d]azepine-4-yl)oxy)-3,5-dimethylbenzonitrile] |
| 34.8 | COC(=O)C(=O)N1CCc2nc(Nc3ccc(C#N)cc3)nc(Oc3c(C)cc(C=O)cc3C)c2CC1 [BB0274312, Methyl 2-{2-[(4-cyanophenyl)amino]-4-(4-formyl-2,6-dimethylphenoxy)-5H,6H,7H,8H,9H-pyrimido [4,5-d]azepine-7-yl}-2-oxoacetate] |
| 82.1 | Cc1cc(C#N)cc(C)c1Oc1nc(Nc2ccc(C#N)cc2)nc2c1CN(C(=O)[C@@H](N)Cc1ccc(O)cc1)CC2 [BB0274125, (S)-4-((6-(2-Amino-3-(4-hydroxyphenyl)propanoyl)-2-((4-cyanophenyl)amino)-5,6,7,8-tetrahydropyrido[4,3-d]pyrimidine-4-yl)oxy)-3,5-dimethylbenzonitrile] |
| 0.0959 | COC(=O)N1CCc2nc(Nc3ccc(C#N)cc3)nc(Oc3c(C)cc(C#N)cc3C)c2CC1 [BB0274134, Methyl 4-(4-cyano-2,6-dimethylphenoxy)-2-((4-4-cyanophenyl)amino)-8,9-dihydro-5H-pyrimido[4,5-d]azepine-7(6H)-carboxylate] |
| 4880 | Cc1cc(C#N)cc(C)c1Oc1nc(Nc2ccc(C#N)cc2)nc2c1CCN(Cc1ccncc1)CC2 [BB0274016, 4-((2-((4-Cyanophenyl)amino)-7-(pyridine-4-ylmethyl)-6,7,8,9-tetrahydro-5H-pyrimido[4,5-d]azepine-4-yl)oxy)-3,5-dimethylbenzonitrile] |
| 117 | Cc1cc(C#N)cc(C)c1Oc1nc(Nc2ccc(C#N)cc2)nc2c1CCN(C(=O)OC(C)(C)C)CC2 [BB0273972, Tert-butyl 4-(4-cyano-2,6-dimethylphenoxy)-2-((4-cyanophenyl)amino)-8,9-dihydro-5H-pyrimido[4,5-d]azepine-7(6H)-carboxylate] |
| 174 | C#CCOc1ccccc1CN1CCc2nc(Nc3ccc(C#N)cc3)nc(Oc3c(C)cc(C#N)cc3C)c2C1 [BB0274141, 4-((2-((4-Cyanophenyl)amino)-6-(2-(prop-2-in-1-yloxy)benzyl)-5,6,7,8-tetrahydropyrido[4,3-d]pyrimidine-4-yl)oxy)-3,5-dimethylbenzonitrile] |
| 0.364 | Cc1cc(C#N)cc(C)c1Oc1nc(Nc2ccc(C#N)cc2)nc2c1CCN(C(=O)C1CCNCC1)CC2 [BB0274026, 4-((2-((4-Cyanophenyl)amino)-7-(piperidine-4-carbonyl)-6,7,8,9-tetrahydro-5H-pyrimido[4,5-d]azepine-4-yl)oxy)-3,5-dimethylbenzonitrile] |
| 45.3 | Cc1cc(C#N)cc(C)c1Oc1nc(Nc2ccc(C#N)cc2)nc2c1CN(C(=O)[C@H](NC(=O)OC(C)(C)C)C(C)C)CC2 [BB0274126, (R)-Tert-butyl (1-(4-(4-cyano-2,6-dimethylphenoxy)-2-((4-cyanophenyl)amino)-7,8-dihydropyrido[4,3-d]pyrimidine-6(5H)-yl)-3-methyl-1-oxobutane-2-yl)carbamate] |
| 0.00552 | Cc1cc(C#N)cc(C)c1Oc1nc(Nc2ccc(C#N)cc2)nc2c1CN(C(=O)CN)CC2 [BB0274051, 4-((6-(2-Aminoacetyl)-2-((4-cyanophenyl)amino)-5,6,7,8-tetrahydropyrido[4,3-d]pyrimidine-4-yl)oxy)-3,5-dimethylbenzonitrile] |
| 493 | Cc1cc(C#N)cc(C)c1Oc1nc(Nc2ccc(C#N)cc2)nc2c1CCN(C(=O)[C@H]1CCCN1C(=O)OC(C)(C)C)CC2 [BB0274064, (R)-Tert-butyl 2-(4-(4-cyano-2,6-dimethylphenoxy)-2-((cyanophenyl)amino)-6,7,8,9-tetrahydro-5H-pyrimido[4,5-d]azepine-7-carbonyl)pyrrolidine-1-carboxylate] |
| 1.63 | C=CCN1CCc2nc(Nc3ccc(C#N)cc3)nc(Oc3c(C)cc(C#N)cc3C)c2CC1 [BB0274144, 4-((7-Allyl-2-((4-cyanophenyl)amino)-6,7,8,9-tetrahydro-5H-pyrimido[4,5-d]azepine-4-yl)oxy)-3,5-dimethylbenzonitrile] |

| Compound | IC50 [µM] |
| --- | --- |
| Cc1cc(/C=C/C(=O)O)cc(C)c1Oc1nc(Nc2ccc(C#N)cc2)nc2c1CCN(C(=O)OC(C)(C)C)CC2 [BB0273969, (E)-3-(4-((7-(Tert-butoxycarbonyl)-2-((4-cyanophenyl)amino)-6,7,8,9-tetrahydro-5H-pyrimido[4,5-d]azepine-4-yl)oxy)-3,5-dimethylphenyl)acrylic acid] | 10700 |
